# Several values for one entry are separate records, joined by “and”; a condition that tells them apart may be missing. Equal values may be shown once.
# System: cerebellum
# Assay: Ceramide, SM and HexCer levels in cerebellum;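 for Cer 18:1/18:0 content of cerebellum: pmol per mg cerebellum tissue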;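 for Cer 18:1/24:0 content of cerebellum: pmol per mg cerebellum tissue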;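 for Cer 18:1/24:1 content of cerebellum: pmol per mg cerebellum tissue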;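 for Cer 18:2/18:0 content of cerebellum: pmol per mg cerebellum tissue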;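 for HexCer 18:1 content of cerebellum: pmol per mg cerebellum tissue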;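 for HexCer 20:1 content of cerebellum: pmol per mg cerebellum tissue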;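 for HexCer 22:1 content of cerebellum: pmol per mg cerebellum tissue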;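 for HexCer 24:0 content of cerebellum: pmol per mg cerebellum tissue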;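 for SM 32:1 content of cerebellum: pmol per mg cerebellum tissue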;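 for SM 34:2 content of cerebellum: pmol per mg cerebellum tissue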;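 for SM 36:1 content of cerebellum: pmol per mg cerebellum tissue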;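 for SM 36:2 content of cerebellum: pmol per mg cerebellum tissue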;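 for SM 40:1 content of cerebellum: pmol per mg cerebellum tissue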;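 for SM 40:2 content of cerebellum: pmol per mg cerebellum tissue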;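 for SM 42:1 content of cerebellum: pmol per mg cerebellum tissue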;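 for SM 42:2 content of cerebellum: pmol per mg cerebellum tissue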
# Assay type: in vivo, mice
# Conditions: individual mice, raw data for Supplementary Figure 7
# Text: Supplementary Figure 7. […] Ceramide, SM, and HexCer […]
# levels in the cerebellum of vehicle- or P053-treated mice on a chow or HFD. N = 10 mice per group, except for chow vehicle group (n = 9). Mean ± SEM shown. No lipids were […]
# comparisons. C18:0 HexCer was 45% lower in the P053-treated compared to the vehicle-treated HFD group (unadjusted P value = 0.02; adjusted value P = 0.16). Raw data for these figures is provided in Supplementary Data File 1.
smiles,measurement,setting,value
"C[C@@](N)(CO)CCc1ccc(OCc2ccc(Cl)c(Cl)c2)cc1 [P053, (S)-2-amino-4-(4-(3,4-dichlorobenzyloxy)phenyl)-2-methylbutan-1-ol]",Cer 18:1/16:0 content of cerebellum,Chow + P053,3.617 and 2.396 and 2.239 and 1.878 and 1.763 and 7.091 and 4.235 and 4.186 and 2.745 and 2.729
same,Cer 18:1/18:0 content of cerebellum,Chow + P053,141.97 and 85.5119 and 108.595 and 104.792 and 97.4561 and 431.392 and 196.381 and 275.197 and 135.779 and 146.615
same,Cer 18:1/20:0 content of cerebellum,Chow + P053,10.8793 and 8.155 and 10.4755 and 10.5072 and 6.176 and 36.1314 and 20.5959 and 26.7359 and 12.6268 and 16.6128
same,Cer 18:1/22:0 content of cerebellum,Chow + P053,14.5276 and 15.0246 and 22.6132 and 25.2761 and 10.65 and 51.7937 and 37.5604 and 49.7318 and 29.1858 and 28.3511
same,Cer 18:1/24:0 content of cerebellum,Chow + P053,25.164 and 39.1513 and 61.4338 and 64.1688 and 24.2127 and 137.911 and 88.346 and 158.631 and 89.2495 and 92.5091
same,Cer 18:1/24:1 content of cerebellum,Chow + P053,194.92 and 106.297 and 150.541 and 182.076 and 61.3337 and 311.08 and 260.185 and 253.268 and 147.127 and 119.244
same,Cer 18:2/18:0 content of cerebellum,Chow + P053,6.1678 and 7.469 and 7.847 and 9.952 and 5.015 and 15.2517 and 13.7543 and 19.4608 and 12.754 and 10.8001
same,HexCer 16:0 content of cerebellum,Chow + P053,2.618 and 11.905 and 12.0787 and 17.3566 and 8.981 and 4.913 and 10.616 and 11.083 and 11.1713 and 10.2043
same,HexCer 18:0 content of cerebellum,Chow + P053,28.8093 and 286.922 and 231.007 and 375.961 and 165.705 and 81.8257 and 140.616 and 234.577 and 281.805 and 232.737
same,HexCer 18:1 content of cerebellum,Chow + P053,4.066 and 35.919 and 27.4449 and 39.8082 and 28.3147 and 12.0017 and 18.6127 and 33.0051 and 39.5714 and 38.2232
same,HexCer 20:0 content of cerebellum,Chow + P053,5.379 and 62.6592 and 42.0891 and 61.8563 and 40.4642 and 16.7817 and 19.6222 and 44.5602 and 56.0811 and 52.6344
same,HexCer 20:1 content of cerebellum,Chow + P053,0.8503 and 3.88 and 2.4108 and 3.569 and 3.668 and 1.176 and 1.073 and 2.879 and 4.092 and 4.073
same,HexCer 22:0 content of cerebellum,Chow + P053,103.858 and 933.202 and 709.42 and 853.076 and 744.844 and 421.086 and 403.774 and 821.636 and 996.669 and 1011.42
same,HexCer 22:1 content of cerebellum,Chow + P053,67.4582 and 171.007 and 113.764 and 201.906 and 106.093 and 35.9387 and 77.6418 and 92.6997 and 107.257 and 90.5981
same,HexCer 24:0 content of cerebellum,Chow + P053,564.043 and 4618.59 and 3773.48 and 4286.71 and 3653.78 and 2395.46 and 2157.01 and 3975.05 and 5039.63 and 4758.34
same,HexCer 24:1 content of cerebellum,Chow + P053,3233.35 and 7019.2 and 5377.98 and 7770.21 and 6449.16 and 3511.89 and 4048.72 and 5184.76 and 6290.34 and 5656.27
same,SM 32:1 content of cerebellum,Chow + P053,7.744 and 10.8885 and 9.082 and 12.3443 and 9.858 and 7.664 and 8.692 and 8.551 and 8.187 and 8.4615
same,SM 34:1 content of cerebellum,Chow + P053,82.5407 and 146.305 and 94.5019 and 129.483 and 151.913 and 73.8551 and 80.0167 and 90.7654 and 102.782 and 113.569
same,SM 34:2 content of cerebellum,Chow + P053,7.207 and 9.9108 and 8.648 and 11.4512 and 8.062 and 5.446 and 4.538 and 7.185 and 8.297 and 8.329
same,SM 36:1 content of cerebellum,Chow + P053,194.844 and 464.875 and 291.749 and 380.257 and 596.135 and 225.303 and 199.676 and 294.675 and 315.392 and 396.468
same,SM 36:2 content of cerebellum,Chow + P053,59.5005 and 77.3429 and 59.1592 and 95.459 and 61.3204 and 42.7823 and 27.3474 and 61.4896 and 55.0172 and 56.8047
same,SM 38:1 content of cerebellum,Chow + P053,38.445 and 174.02 and 119.141 and 145.805 and 204.374 and 106.701 and 86.1831 and 141.777 and 157.803 and 199.243
same,SM 38:2 content of cerebellum,Chow + P053,7.207 and 11.8634 and 6.682 and 10.3765 and 10.2552 and 3.609 and 2.903 and 5.065 and 7.083 and 7.8
same,SM 40:1 content of cerebellum,Chow + P053,51.2464 and 304.001 and 220.117 and 327.562 and 242.07 and 125.331 and 158.353 and 223.684 and 258.853 and 295.067
same,SM 40:2 content of cerebellum,Chow + P053,51.3559 and 98.4003 and 64.6125 and 113.428 and 67.3016 and 27.1328 and 51.0354 and 51.6641 and 60.1105 and 65.3939
same,SM 42:1 content of cerebellum,Chow + P053,47.6271 and 371.292 and 288.623 and 388.513 and 255.841 and 158.489 and 203.273 and 296.49 and 332.331 and 358.331
same,SM 42:2 content of cerebellum,Chow + P053,660.19 and 1132.13 and 807.257 and 1283.01 and 802.501 and 434.477 and 634.337 and 659.388 and 719.281 and 714.687
same,Cer 18:1/16:0 content of cerebellum,HFD + P053,2.762 and 1.437 and 5.744 and 2.262 and 3.928 and 1.548 and 1.88 and 7.07 and 1.652 and 5.347
